Data from patent EP2368885A1, “Derivatives of phenazine useful to treat cancer” (Université de la Méditerranée (Aix-Marseille II), priority 2010, dated 2011).
Read-outs that look alike come from different tables or passages of the source.

How the values were obtained:
MiaPaCa-2 cells [1] = tested on: MiaPaCa-2 cells
Method: Pancreatic chemoresitant cancer MiaPaCa-2 cells are cultured in DMEM medium (Gibco) supplemented with 10% fetal bovine serum (FBS). Cells are seeded at a densitiy of 30,000 cells per well in 48 well View Plate (Packard) in 250 µL of medium containing the same components as described above. Cells are allowed to attach overnight (O/N) and then culture medium is removed and replace with fresh media alone as control or containing different concentrations of each of tested compounds. Plates are further incubated at 37 °C and 5% CO2 for 48 hours. The number of viable cells remaining after the appropriate treatment is determined by (3-(4,5-dimethylthiazol-2-yl)-2,5-diphenyltetrazolium bromide, MTT) colorimetric assay.

MiaPaCa-2 cells [2] = assay: MTT colorimetric cytotoxicity assay on pancreatic chemoresistant cancer MiaPaCa-2 cells; conditions: 48 hours incubation, tested concentration not stated

| Compound | Cytotoxicity (en %) (MiaPaCa-2 cells [1]) | Cytotoxicity (en %) (MiaPaCa-2 cells [2]) |
| --- | --- | --- |
| 2,3-diethoxy-7-ethylcarboxyphenazine [compound 14] | 20 > X > 10 |  |
| 2,3-dihydroxy-7,8-diamino(Boc)phenazine [compound 13] | 30 >X> 25 |  |
| 2-hydroxy-3-ethoxy-7-ethylcarboxyphenazine [compound 5] | X>50% |  |
| CCCCCCCCCCCCOc1cc2nc3ccc(C(=O)O)cc3nc2cc1OCCCCCCCCCCCC [compound 1, 2,3-didodecanoxy-7-carboxyphenazine] |  | X>50% |
| CCCCCCCCCCCCOc1cc2nc3cc(N)c(N)cc3nc2cc1OCCCCCCCCCCCC [compound 2, 2,3-didodecanoxy-7,8-diaminophenazine] |  | X>50% |
| CCCCCCCCCCCCOc1cc2nc3ccccc3nc2cc1OCCCCCCCCCCCC [compound 3, 2,3-didodecanoxyphenazine] |  | X>50% |
| CCCCCCCCCCCCOc1cc2nc3ccc(C(=O)NCCN(C)C)cc3nc2cc1OCCCCCCCCCCCC [compound 4, 2,3-didodecanoxy-7-dimethylaminoethylcarbamoylphenazine] |  | X > 50% |
| CCCCCCCCCCCCCCCC(=O)Oc1cc2nc3ccccc3nc2cc1OC(=O)CCCCCCCCCCCCCCC [compound 7, 2,3-diopalmitoylphenazine] | 50 >X> 40 |  |
